Drawing on PMC10589713 (Proceedings of the National Academy of Sciences of the …, 2023), this text covers EC50 for 1 compound.

The test system of this assay is SARS-CoV-2. Put plainly: microbe, parasite or virus in culture. The class given is cell-based.

Structures are written as SMILES. Several values for one entry are separate records, joined by “and”; a condition that tells them apart may be missing. Identical values can stand only once.

Regarding `O=c1ccn([C@@H]2O[C@H](CO)[C@@H](O)[C@H]2O)c(=S)[nH]1` [s2U, 2-thiouridine], the EC50 – broadly, the midpoint of the concentration-response curve – is 2000 nM and 2200 nM and 1800 nM and 2900 nM and 1900 nM and 2500 nM.
